± gives the expanded uncertainty stated by the source.
Assay: molar heat capacity at saturation pressure

c1ccc2c(c1)CCC2 [indane]
molar heat capacity [J/K/mol]
Details | Crystal 1, Vacuum adiabatic calorimetry | Crystal 2, Vacuum adiabatic calorimetry
5 K | – | 0.291 ± 0.017
5.31 K | – | 0.3492 ± 0.017
6.26 K | – | 0.6236 ± 0.025
7.189 K | – | 0.9811 ± 0.033
8.165 K | – | 1.463 ± 0.05
9.174 K | – | 2.12 ± 0.067
10 K | – | 2.735 ± 0.033
10.22 K | – | 2.918 ± 0.025
11.36 K | – | 3.891 ± 0.033
12.63 K | – | 5.097 ± 0.042
14.04 K | – | 6.61 ± 0.05
15.6 K | – | 8.364 ± 0.067
17.35 K | – | 10.43 ± 0.075
19.29 K | – | 12.76 ± 0.091
20 K | – | 13.61 ± 0.091
21.45 K | – | 15.35 ± 0.1
23.86 K | – | 18.19 ± 0.12
26.55 K | – | 21.27 ± 0.12
29.53 K | – | 24.47 ± 0.14
30 K | – | 24.96 ± 0.14
32.82 K | – | 27.82 ± 0.075
36.45 K | – | 31.27 ± 0.083
40 K | – | 34.44 ± 0.083
40.47 K | – | 34.84 ± 0.083
44.94 K | – | 38.64 ± 0.091
49.87 K | – | 42.67 ± 0.1
50 K | – | 42.77 ± 0.1
52.71 K | – | 44.96 ± 0.1
55.33 K | – | 47.14 ± 0.11
57.68 K | – | 49.16 ± 0.11
60 K | – | 51.24 ± 0.12
62 K | – | 53.22 ± 0.12
62.18 K | – | 53.45 ± 0.12
62.48 K | – | 53.74 ± 0.12
63.41 K | – | 54.75 ± 0.12
64 K | – | 55.47 ± 0.12
66 K | – | 57.83 ± 0.12
67.11 K | – | 59.51 ± 0.12
68 K | – | 60.76 ± 0.13
70 K | – | 64.04 ± 0.14
70.7 K | – | 67.01 ± 0.14
70.76 K | – | 67.17 ± 0.14
72 K | – | 67.68 ± 0.15
72.08 K | – | 72.89 ± 0.17
72.27 K | – | 74.46 ± 0.17
72.75 K | – | 77.96 ± 0.18
73.08 K | – | 82.15 ± 0.25
73.38 K | – | 89.8 ± 0.33
73.83 K | 57.49 ± 0.12 | 71.43 ± 0.15
74 K | 57.55 ± 0.12 | –
74.14 K | 63.18 ± 0.16 | –
74.52 K | 59.93 ± 0.14 | –
74.89 K | 59.45 ± 0.12 | –
76 K | 58.28 ± 0.12 | –
76.02 K | 59.19 ± 0.12 | –
77.68 K | 59.3 ± 0.12 | –
78 K | 59.01 ± 0.12 | –
79.98 K | 59.88 ± 0.12 | –
80 K | 59.74 ± 0.12 | –
82.01 K | 60.53 ± 0.13 | –
82.05 K | 60.55 ± 0.13 | –
82.97 K | 60.84 ± 0.13 | –
83.17 K | 60.91 ± 0.13 | –
90 K | 63.39 ± 0.21 | –
91.46 K | 63.9 ± 0.21 | –
100 K | 67.07 ± 0.21 | –
100.48 K | 67.26 ± 0.21 | –
110.07 K | 70.8 ± 0.21 | –
119.85 K | 74.38 ± 0.22 | –
120 K | 74.45 ± 0.22 | –
129.73 K | 78.16 ± 0.22 | –
138.66 K | 81.54 ± 0.22 | –
139.61 K | 81.94 ± 0.22 | –
140 K | 82.06 ± 0.22 | –
148.52 K | 85.42 ± 0.22 | –
158.5 K | 89.5 ± 0.22 | –
160 K | 90.14 ± 0.22 | –
168.63 K | 93.87 ± 0.22 | –
178.81 K | 98.43 ± 0.23 | –
180 K | 99 ± 0.23 | –
184.22 K | 100.9 ± 0.23 | –
189.01 K | 103.32 ± 0.24 | –
194.75 K | 106.22 ± 0.24 | –
199.29 K | 108.5 ± 0.24 | –
200 K | 108.89 ± 0.24 | –
205.19 K | 111.62 ± 0.25 | –
209.54 K | 113.96 ± 0.25 | –
212.42 K | 115.59 ± 0.25 | –
214.32 K | 116.35 ± 0.25 | –
220 K | 119.51 ± 0.26 | –
221.79 K | 120.47 ± 0.26 | –

Liquid
Details | molar heat capacity [J/K/mol]
221.79 K, Vacuum adiabatic calorimetry | 163.91 ± 0.31
228.22 K, Vacuum adiabatic calorimetry | 165.72 ± 0.31
228.34 K, Vacuum adiabatic calorimetry | 165.76 ± 0.31
229.69 K, Vacuum adiabatic calorimetry | 166.13 ± 0.31
229.78 K, Vacuum adiabatic calorimetry | 166.24 ± 0.31
230 K, Vacuum adiabatic calorimetry | 166.22 ± 0.31
236.45 K, Vacuum adiabatic calorimetry | 168.04 ± 0.31
238.81 K, Vacuum adiabatic calorimetry | 168.76 ± 0.31
240 K, Vacuum adiabatic calorimetry | 169.13 ± 0.31
250 K, Vacuum adiabatic calorimetry | 172.31 ± 0.32
250.13 K, Vacuum adiabatic calorimetry | 172.35 ± 0.32
260 K, Vacuum adiabatic calorimetry | 175.75 ± 0.32
262.1 K, Vacuum adiabatic calorimetry | 176.48 ± 0.32
262.28 K, Vacuum adiabatic calorimetry | 176.54 ± 0.32
270 K, Vacuum adiabatic calorimetry | 179.48 ± 0.32
274.49 K, Vacuum adiabatic calorimetry | 181.2 ± 0.32
275.32 K, Vacuum adiabatic calorimetry | 181.5 ± 0.32
280 K, Vacuum adiabatic calorimetry | 183.04 ± 0.32
286.77 K, Vacuum adiabatic calorimetry | 185.35 ± 0.33
288.6 K, Vacuum adiabatic calorimetry | 185.93 ± 0.33
290 K, Vacuum adiabatic calorimetry | 186.46 ± 0.33
297.89 K, Vacuum adiabatic calorimetry | 189.38 ± 0.33
298.15 K, Vacuum adiabatic calorimetry | 189.48 ± 0.33
299.11 K, Vacuum adiabatic calorimetry | 189.82 ± 0.33
300 K, Vacuum adiabatic calorimetry | 190.18 ± 0.33
301.9 K, Vacuum adiabatic calorimetry | 190.91 ± 0.33
310 K, Vacuum adiabatic calorimetry | 194.12 ± 0.34
310.2 K, Vacuum adiabatic calorimetry | 194.19 ± 0.34
311.46 K, Vacuum adiabatic calorimetry | 194.67 ± 0.34
320 K, Vacuum adiabatic calorimetry | 198.07 ± 0.34
322.46 K, Vacuum adiabatic calorimetry | 199.08 ± 0.35
330 K, Vacuum adiabatic calorimetry | 202.15 ± 0.35
333.38 K, Vacuum adiabatic calorimetry | 203.54 ± 0.35
334.63 K, Vacuum adiabatic calorimetry | 204.04 ± 0.35
340 K, Vacuum adiabatic calorimetry | 206.3 ± 0.36
347.49 K, Vacuum adiabatic calorimetry | 209.45 ± 0.36
350 K, Vacuum adiabatic calorimetry | 210.48 ± 0.36
360 K, Vacuum adiabatic calorimetry | 214.61 ± 0.37
360.87 K, Vacuum adiabatic calorimetry | 214.96 ± 0.37
370 K, Vacuum adiabatic calorimetry | 218.8 ± 0.37
374.71 K, Vacuum adiabatic calorimetry | 220.8 ± 0.37
380 K, Vacuum adiabatic calorimetry | 223.03 ± 0.37
388.61 K, Vacuum adiabatic calorimetry | 226.66 ± 0.37
390 K, Vacuum adiabatic calorimetry | 227.25 ± 0.37
400 K, Vacuum adiabatic calorimetry | 231.47 ± 0.38
402.42 K, Vacuum adiabatic calorimetry | 232.49 ± 0.38
409.24 K, Vacuum adiabatic calorimetry | 235.36 ± 0.39
410 K, Vacuum adiabatic calorimetry | 235.68 ± 0.39
415.99 K, Vacuum adiabatic calorimetry | 238.21 ± 0.39
420 K, Vacuum adiabatic calorimetry | 239.88 ± 0.39
426.54 K, Vacuum adiabatic calorimetry | 242.6 ± 0.4
428.9 K, Vacuum adiabatic calorimetry | 243.53 ± 0.4
430 K, Vacuum adiabatic calorimetry | 244.05 ± 0.4
439.86 K, Vacuum adiabatic calorimetry | 248.28 ± 0.4
440 K, Vacuum adiabatic calorimetry | 248.4 ± 0.4
450 K, Small sample (50 mg) DSC | 253.17 ± 3.9
460 K, Small sample (50 mg) DSC | 258.04 ± 4
470 K, Small sample (50 mg) DSC | 262.7 ± 4.1
480 K, Small sample (50 mg) DSC | 267.2 ± 4.1
490 K, Small sample (50 mg) DSC | 271.71 ± 4.2
500 K, Small sample (50 mg) DSC | 276.21 ± 4.3
510 K, Small sample (50 mg) DSC | 280.72 ± 4.3
520 K, Small sample (50 mg) DSC | 285.23 ± 4.4
530 K, Small sample (50 mg) DSC | 289.72 ± 4.5
540 K, Small sample (50 mg) DSC | 294.22 ± 4.6
550 K, Small sample (50 mg) DSC | 298.7 ± 4.7
560 K, Small sample (50 mg) DSC | 303.18 ± 4.9
570 K, Small sample (50 mg) DSC | 307.65 ± 5
580 K, Small sample (50 mg) DSC | 312.12 ± 5.2
590 K, Small sample (50 mg) DSC | 316.59 ± 5.4
600 K, Small sample (50 mg) DSC | 321.05 ± 5.6
